The numbers were not newly measured in patent publication US20150038674A1, “USE OF GLP-2 ANALOGUES IN PULMONARY DISEASES FOR THERAPEUTIC PURPOSE” (priority 2013, published 2015), which cites them from elsewhere.

This data set relates to patients with short bowel syndrome. The note with it: 11 patients with short bowel syndrome, s.c. 0.4 mg 3 times a day, 13, 26, 52 weeks; cited from earlier work.

With “human GLP-2: Human glucagon like peptide 2, 33 amino acid sequence (SEQUENCE ID No. 1) (HADGSFSDEMNTILDNLAARDFINWLIQTKIT; listed as Homo sapiens)”, the “intestinal morphology, absorption, renal functions, bone mineral density and muscle functions” value is “does not change”.
